Test results as given in ChEMBL document CHEMBL1201862, “PubChem BioAssay data set” (2004).
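Cells were grown in 96-well plates and exposed to each compound for 48 hours at five concentrations; endpoints were interpolated linearly between bracketing concentrations, or set to the highest concentration if not reached. GI50: concentration for 50% inhibition of growth.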 Calls of active or inactive are those of the source. No stated cut-off is given here; in the data, active = GI50 up to about 1.1 µM and inactive = higher.

How the values were obtained:
Experiment in all cases: growth of human tumour cells (NCI), 48 h
LOX IMVI = tested on: LOX IMVI
OVCAR-3 = tested on: OVCAR-3
SNB-19 = tested on: SNB-19
HCC 2998 = tested on: HCC 2998
OVCAR-5 = tested on: OVCAR-5
SK-MEL-28 = tested on: SK-MEL-28
HCT-15 = tested on: HCT-15
HOP-62 = tested on: HOP-62
PC-3 = tested on: PC-3
NCI-H226 = tested on: NCI-H226
HOP-92 = tested on: HOP-92
MDA-N = tested on: MDA-N
RPMI-8226 = tested on: RPMI-8226
SF-268 = tested on: SF-268
ACHN = tested on: ACHN
SK-OV-3 = tested on: SK-OV-3
K562 = tested on: K562
Malme-3M = tested on: Malme-3M
A498 = tested on: A498
NCI-H522 = tested on: NCI-H522

Compound	GI50 (LOX IMVI)	GI50 (OVCAR-3)	GI50 (SNB-19)	GI50 (HCC 2998)	GI50 (OVCAR-5)	GI50 (SK-MEL-28)	GI50 (HCT-15) [µM]	GI50 (HOP-62)	GI50 (PC-3)	GI50 (NCI-H226)	GI50 (HOP-92)	GI50 (MDA-N)	GI50 (RPMI-8226)	GI50 (SF-268)	GI50 (ACHN)	GI50 (SK-OV-3)	GI50 (K562)	GI50 (Malme-3M)	GI50 (A498)	GI50 (NCI-H522)
CC(=O)NC1COC(COC(=O)CCCCCCCCCCNC(=O)c2ccc([N+](=O)[O-])c3c(=O)c4ccccc4[nH]c23)C(O)C1OC(C)C(=O)NC(C(=O)NC(CCC(N)=O)C(=O)OCc1ccccc1)C(C)C (configuration not stated)	11.5 µM (inactive)	3.57 µM (inactive)	6.03 µM (inactive)	5.96 µM (inactive)	36 µM (inactive)	11.9 µM (inactive)	11.2	7.45 µM (inactive)	8.05 µM (inactive)	44.9 µM (inactive)	8.05 µM (inactive)	0.966 µM (active)	4.97 µM (inactive)	7.36 µM (inactive)	14.8 µM (inactive)	39.2 µM (inactive)	9.48 µM (inactive)	38.6 µM (inactive)	28.8 µM (inactive)	12.3 µM (inactive)
CC(NC(=O)NC(C)(C)C)NC(=O)C(N)CC(=O)O (configuration not stated)	> 100 µM (inactive)	> 100 µM (inactive)	> 100 µM (inactive)	> 10 µM (inactive)	> 100 µM (inactive)	> 100 µM (inactive)	> 100	> 100 µM (inactive)	> 100 µM (inactive)	> 100 µM (inactive)	> 100 µM (inactive)	> 100 µM (inactive)	> 100 µM (inactive)	> 100 µM (inactive)	> 100 µM (inactive)	15.8 µM (inactive)	> 100 µM (inactive)	> 100 µM (inactive)	> 100 µM (inactive)	> 100 µM (inactive)
O=C(O)CCCCCNC(=O)CCC(CN(CC(=O)OCc1ccccc1)CC(=O)OCc1ccccc1)N(CC(=O)OCc1ccccc1)CC(=O)OCc1ccccc1 (configuration not stated)	19.2 µM (inactive)	17.3 µM (inactive)	17.9 µM (inactive)	15.2 µM (inactive)	18.2 µM (inactive)	19 µM (inactive)	17.9	20.1 µM (inactive)	17 µM (inactive)	22.9 µM (inactive)	13.3 µM (inactive)	18.2 µM (inactive)	10.3 µM (inactive)	18.7 µM (inactive)	18.1 µM (inactive)	13.3 µM (inactive)	12.5 µM (inactive)	19.2 µM (inactive)	17.9 µM (inactive)	19.2 µM (inactive)
Cc1c(-c2ccccc2)c(C#N)c2nnn(C)c(=O)n12	> 100 µM (inactive)	> 100 µM (inactive)	> 100 µM (inactive)	> 100 µM (inactive)	> 100 µM (inactive)	> 100 µM (inactive)	> 100	44 µM (inactive)	64.3 µM (inactive)	> 100 µM (inactive)	> 100 µM (inactive)	> 100 µM (inactive)	> 100 µM (inactive)	> 100 µM (inactive)	> 100 µM (inactive)	96.2 µM (inactive)	> 100 µM (inactive)	> 100 µM (inactive)	91.6 µM (inactive)	> 100 µM (inactive)
COc1cc2cc(C(=O)Nc3cc4n(n3)-c3ccccc3C4)[nH]c2c(OC)c1OC	4.68 µM (inactive)	2.19 µM (inactive)	9.48 µM (inactive)	10.4 µM (inactive)	8.93 µM (inactive)	3.72 µM (inactive)	2.52	2 µM (inactive)	2.71 µM (inactive)	1.22 µM (inactive)	2.18 µM (inactive)	2.35 µM (inactive)	1.06 µM (active)	6.19 µM (inactive)	4.72 µM (inactive)	6.25 µM (inactive)	3.36 µM (inactive)	1.29 µM (inactive)	23.4 µM (inactive)	1.08 µM (active)
CCCCCCCCCCCCCCCCC1=CC(=O)C=C(OC)C1=O	65.3 µM (inactive)	> 100 µM (inactive)	56.4 µM (inactive)	> 100 µM (inactive)	> 100 µM (inactive)	> 100 µM (inactive)	66.8	> 100 µM (inactive)	80.4 µM (inactive)	> 100 µM (inactive)	56.8 µM (inactive)	> 100 µM (inactive)	91.2 µM (inactive)	> 100 µM (inactive)	> 100 µM (inactive)	> 100 µM (inactive)	47.4 µM (inactive)	> 100 µM (inactive)	48.5 µM (inactive)	> 100 µM (inactive)
CC(=O)Nc1c2sscc-2n(C)c1=O [THIOLUTIN]	1.86 µM (inactive)	1.82 µM (inactive)	1.96 µM (inactive)	0.587 µM (active)	1.6 µM (inactive)	1.37 µM (inactive)	1.32	1.67 µM (inactive)	1.58 µM (inactive)	1.89 µM (inactive)	2.23 µM (inactive)	1.56 µM (inactive)	0.575 µM (active)	1.56 µM (inactive)	0.984 µM (active)	1.2 µM (inactive)	1.52 µM (inactive)	0.787 µM (active)	1.86 µM (inactive)	1.3 µM (inactive)
Nc1ccccc1CCCC(=O)O	> 100 µM (inactive)	> 100 µM (inactive)	> 100 µM (inactive)	> 100 µM (inactive)	> 100 µM (inactive)	> 100 µM (inactive)	> 100	> 100 µM (inactive)	> 100 µM (inactive)	> 100 µM (inactive)	> 100 µM (inactive)	> 100 µM (inactive)	> 100 µM (inactive)	> 100 µM (inactive)	> 100 µM (inactive)	> 100 µM (inactive)	> 100 µM (inactive)	> 100 µM (inactive)	> 100 µM (inactive)	> 100 µM (inactive)
c1ccc2c3ccn4ccc5c6ccccc6[nH]c5c4c-3nc2c1	0.202 µM (active)	0.236 µM (active)	1.49 µM (inactive)	0.453 µM (active)	1.57 µM (inactive)	1.7 µM (inactive)	0.344	1.31 µM (inactive)	1.39 µM (inactive)	1.67 µM (inactive)	1.43 µM (inactive)	1.34 µM (inactive)	0.255 µM (active)	1.24 µM (inactive)	1.43 µM (inactive)	1.52 µM (inactive)	0.201 µM (active)	1.65 µM (inactive)	1.63 µM (inactive)	1.46 µM (inactive)
Cc1ccc([N+](=O)[O-])cc1S(=O)(=O)Nc1ccc(C2=NOC(c3ccco3)C2)cc1 (configuration not stated)	17.3 µM (inactive)	14.8 µM (inactive)	18.7 µM (inactive)	17.2 µM (inactive)	22.9 µM (inactive)	18.2 µM (inactive)	10.4	12.6 µM (inactive)	15.7 µM (inactive)	17 µM (inactive)	29.2 µM (inactive)	6.44 µM (inactive)	18.9 µM (inactive)	26.1 µM (inactive)	21.3 µM (inactive)	28 µM (inactive)	4.7 µM (inactive)	16.6 µM (inactive)	15.1 µM (inactive)	10.7 µM (inactive)
Cc1c2ccc3ccccc3c2c[n+]2ccccc12	42.9 µM (inactive)	5.85 µM (inactive)	2.64 µM (inactive)	4.92 µM (inactive)	61.9 µM (inactive)	9.55 µM (inactive)	59.2	7.93 µM (inactive)	26.7 µM (inactive)	4.67 µM (inactive)	13.5 µM (inactive)	6.71 µM (inactive)	19.5 µM (inactive)	1.36 µM (inactive)	56.5 µM (inactive)	16.9 µM (inactive)	10.7 µM (inactive)	1.56 µM (inactive)	> 47.5 µM (inactive)	3.41 µM (inactive)
Oc1c(Br)c(-c2ccccc2)nc2ccccc12	64 µM (inactive)	50.5 µM (inactive)	> 10 µM (inactive)	> 10 µM (inactive)	> 10 µM (inactive)	89.1 µM (inactive)	> 62.5	> 62.1 µM (inactive)	9.38 µM (inactive)	8.47 µM (inactive)	8 µM (inactive)	39.2 µM (inactive)	20.7 µM (inactive)	> 10 µM (inactive)	35.8 µM (inactive)	> 100 µM (inactive)	1.9 µM (inactive)	53.2 µM (inactive)	5.35 µM (inactive)	> 10 µM (inactive)
CN(C)c1ccc(/C=N/n2c(-c3ccccc3)nc3ccccc3c2=O)cc1	80.2 µM (inactive)	> 100 µM (inactive)	40.8 µM (inactive)	> 100 µM (inactive)	> 100 µM (inactive)	> 100 µM (inactive)	27.5	> 100 µM (inactive)	24.5 µM (inactive)	71.6 µM (inactive)	90.8 µM (inactive)	43.1 µM (inactive)	20.4 µM (inactive)	44 µM (inactive)	18.5 µM (inactive)	80.5 µM (inactive)	–	> 100 µM (inactive)	> 100 µM (inactive)	49.3 µM (inactive)
O=C(N/C=C1\C(=O)Oc2ccccc2C1=O)Oc1ccccc1	25.1 µM (inactive)	17 µM (inactive)	30.6 µM (inactive)	24.8 µM (inactive)	46.1 µM (inactive)	–	23.7	17.6 µM (inactive)	29.5 µM (inactive)	14.4 µM (inactive)	22.1 µM (inactive)	18.1 µM (inactive)	91.4 µM (inactive)	–	20.9 µM (inactive)	6.27 µM (inactive)	55.3 µM (inactive)	19.1 µM (inactive)	15.2 µM (inactive)	25 µM (inactive)
